Experimental findings from PMC11267565, “Glutathione-Based Photoaffinity Probe Identifies Caffeine as a Positive Allosteric Modulator of the Calcium-Sensing Receptor” (ACS Chemical Biology, 2024) are described below.

Structures are written as SMILES.

Assay [1] addresses T1, calcium-sensing receptor (CaSR) (Homo sapiens, UniProt P41180).
T1 sequence (P41180 20-1078): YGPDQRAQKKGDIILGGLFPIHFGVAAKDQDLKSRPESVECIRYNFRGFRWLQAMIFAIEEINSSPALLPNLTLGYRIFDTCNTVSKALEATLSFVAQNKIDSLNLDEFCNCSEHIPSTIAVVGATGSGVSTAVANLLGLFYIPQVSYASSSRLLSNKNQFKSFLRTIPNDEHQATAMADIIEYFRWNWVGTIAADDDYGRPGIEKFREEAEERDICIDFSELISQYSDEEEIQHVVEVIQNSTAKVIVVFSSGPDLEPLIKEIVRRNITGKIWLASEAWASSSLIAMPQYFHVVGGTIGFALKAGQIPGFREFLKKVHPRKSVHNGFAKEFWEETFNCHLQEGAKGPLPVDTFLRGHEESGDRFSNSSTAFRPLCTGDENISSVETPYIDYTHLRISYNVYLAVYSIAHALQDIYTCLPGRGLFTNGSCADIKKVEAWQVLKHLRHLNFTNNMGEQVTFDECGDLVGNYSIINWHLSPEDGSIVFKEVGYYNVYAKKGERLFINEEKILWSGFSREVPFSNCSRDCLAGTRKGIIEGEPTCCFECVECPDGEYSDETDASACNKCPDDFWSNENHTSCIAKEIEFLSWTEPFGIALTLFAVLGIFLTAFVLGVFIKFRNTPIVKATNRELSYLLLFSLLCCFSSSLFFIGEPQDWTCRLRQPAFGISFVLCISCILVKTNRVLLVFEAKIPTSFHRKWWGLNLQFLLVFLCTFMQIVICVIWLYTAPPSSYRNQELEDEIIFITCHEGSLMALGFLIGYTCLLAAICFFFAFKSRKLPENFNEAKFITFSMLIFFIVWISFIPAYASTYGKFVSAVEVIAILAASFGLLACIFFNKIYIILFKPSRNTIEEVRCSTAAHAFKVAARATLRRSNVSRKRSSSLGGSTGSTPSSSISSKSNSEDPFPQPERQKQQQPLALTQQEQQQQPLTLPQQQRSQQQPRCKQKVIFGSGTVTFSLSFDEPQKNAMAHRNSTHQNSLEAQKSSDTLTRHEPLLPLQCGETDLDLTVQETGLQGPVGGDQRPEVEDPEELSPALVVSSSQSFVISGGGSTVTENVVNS
Description: concentration-dependent competition with DAZ-G photo-conjugation in cells. It counts as cell-based. The arrangement: FLAG-CaSR.

Assay [2] deals with T1, calcium-sensing receptor (CaSR). Description: Cal-520 Ca2+ flux in HEK293-CaSR cells (EC50); competition with DAZ-G photo-conjugation; E837A and S170A mutants. It counts as cell-based.

Regarding `N[C@@H](Cc1ccccc1)C(=O)O` [L-Phe], the “concentration-dependent competition with DAZ-G photo-conjugation in cells” value in assay [1] was “L-Phe, a prototype ligand for ABS, induced concentration-dependent competition to DAZ-G”.

For the compound `Cn1c(=O)c2c(ncn2C)n(C)c1=O` [caffeine], the EC50 (usually the concentration that produces a half-maximal response) in assay [2] amounted to 3.35 µM.
